Patent publication US8936787B2, “Peptides promoting lipid efflux” (The United States of America as represented by the …, priority 2008, dated 2015)
“Also recorded” adds a separate entry of the source. Square brackets hold non-standard residues; d marks the D form. Ends that are not written are not given here. Peptide text beside a SMILES is read from it.

Assays:
[1] = system: HeLa cells stably transfected with human ABCA1 cDNA (ABCA1 cells); assay: Cholesterol and phospholipid efflux from ABCA1 cells; type: cell-based; details: for cholesterol efflux from ABCA1 cells to detergent: sublytic concentration (taurodeoxycholate 0.02%, 1 hour)
Procedure: (§1) Percentage efflux was calculated after subtracting the radioactive counts in the blank media (αMEM plus 1 mg/ml of BSA), and expressed as the percent of total radioactive counts removed from the cells during the efflux period.
(§2) Cell fixation was performed by a 10 minute treatment with 3% paraformaldehyde in phosphate buffered saline (PBS), followed by three washes with blank media. Lactate dehydrogenase (LDH) release from cells into the media was measured enzymatically (Roche Diagnostics, Indianapolis, Ind.) and expressed, after subtraction of LDH released into blank media, as the percentage of total cell LDH. Total cell LDH was determined after cell solubilization with 1% Triton X-100.

ABCA1 cells [2] = assay: LDH release from ABCA1 cells; type: cell-based, human; details: 40 μg/ml for 18 hours
Procedure: as §2
(§3) The microsolubilization of the plasma membrane of cells could, therefore, be potentially cytotoxic, but no morphologic effect was observed on the cells after incubation with the peptides or apoA-I, during the efflux experiments. Incubation of the cells with L-37pA and D-37pA at the maximum concentration and time used for the efflux studies (40 μg/ml for 18 hours) did, however, consistently result in the release of a small amount of LDH from both cell lines (control cells: L-37pA (6.1%±0.2), D-37pA (6.6%±0.1); ABCA1 cells: L-37pA (4.3%±0.04), D-37pA (5.7%±0.1)).

control cells = assay: LDH release from control cells; type: cell-based; details: 40 μg/ml for 18 hours
Procedure: as §2, §3

[3] = system: HeLa cells transfected with only a hygromycin-resistant control plasmid (control cells); assay: Cholesterol and phospholipid efflux from control cells; type: cell-based; details: for lipid (cholesterol and phospholipid) efflux from control cells: 18 hours
Procedure: as §1, §2

C57B1/6 mice = assay: Plasma triglycerides in C57B1/6 mice, 18A-C-II; type: in vivo; details: 1 mg (30 mg/kg) co-injected
Procedure: FIG. 18 is a graph illustrating the ability of 18A-C-II:POPC peptide (peptide with SEQ ID NO: 70) to prevent hypertriglyceridemia. The 18A-C-II:POPC peptide was lipidated with POPC at the ratio of 1:7. Hypertriglyceridemia was induced in C57B1/6 mice by a 2 mg (60 mg/kg) bolus intravenous (IV) injection of free 5A peptide (Δ). […] In addition, a single IV dose of 1 mg of the 18A-C-II:POPC peptide lowered the plasma triglyceride levels in normal C57B1 mice (□) compared to saline (⋄).
18A-C-II peptide (SEQ ID NO: 70) was complexed with POPC at a 1:7 molar ratio using a co-lyophilization procedure by which the free peptide and POPC were co-dissolved in glacial acetic acid and lypophilized. The dry powder was reconstituted with saline and heated between 37° C. to 50° C. to reconstitution, which results in a clear solution of particles containing both the 18A-C-II peptide and POPC.
Hypertriglyceridemia was induced in C57B1/6 mice by a 2 mg (60 mg/kg) bolus IV injection of free 5A peptide (A). […] In addition, a single IV dose of 1 mg of the 18A-C-II:POPC peptide lowered the plasma triglyceride levels in normal C57B1 mice (□) compared to saline (⋄).

BHK and BHK-ABCA1 cells = assay: Cholesterol efflux from BHK and BHK-ABCA1 cells; type: cell-based; details: 20 ug/ml free peptide, 18 hours
Procedure: FIG. 23 is a graph illustrating the effect of 18A-C-II peptide on cholesterol efflux. BHK and BHK-ABCA1 cells were loaded with ^3H-cholesterol for 24 hours at 37° C. and then 20 ug/ml of the free 18A-C-II peptide was added as cholesterol acceptor to efflux for 18 hours. Percentage efflux was calculated by subtracting the radioactive counts in the blank from the radioactive counts in the presence of an acceptor and then dividing the result by the sum of the radioactive counts in the medium plus the cell fraction.
The effect of 18A-C-II peptide on cholesterol efflux was investigated by loading BHK and BHK-ABCA1 cells with ^3H-cholesterol for 24 hours at 37° C. and then adding 20 ug/ml of the free 18A-C-II peptide as cholesterol acceptor to efflux for 18 hours. Percentage efflux was calculated by subtracting the radioactive counts in the blank from the radioactive counts in the presence of an acceptor and then dividing the result by the sum of the radioactive counts in the medium plus the cell fraction.

red blood cells = assay: Red blood cell hemolysis assay; type: cell-based; details: 1 hour at 37° C., maximum dose tested
Procedure: Red blood cells were incubated with the indicated concentration of the peptides for 1 hour at 37° C. Results are expressed as the mean of triplicates ±1 SD.
Approximately 25% of the red blood cells were lysed after 1 hour at the maximum dose tested (FIG. 9). Overall, the modified peptides containing the Ala substitutions were less cytotoxic, and the degree of cytotoxicity closely correlated with the number of Ala substitutions.

Normal skin fibroblasts = assay: Cholesterol efflux from normal skin fibroblasts; type: cell-based; details: 10 μg/ml, 18 hour
Procedure: (§4) FIG. 5 is a graph illustrating ABCA1-independent efflux of cholesterol from Tangier disease fibroblasts. Normal skin fibroblasts (open bars) and Tangier disease skin fibroblasts (solid bars) were examined for their ability to efflux cholesterol over an 18 hour period when treated with 10 μg/ml apoA-I (A), 10 μg/ml L-37pA (L), and 10 μg/ml D-37pA (D). Results are expressed as the mean of triplicates ±1 SD.
(§5) In order to confirm that the residual lipid efflux from the control cells to L-37pA and D-37pA (see FIG. 1) was not due to a low level of endogenous ABCA1, a Tangier disease fibroblast cell line with a truncated non-functional ABCA1 transporter (Remaley et al., Proc. Natl. Acad. Sci. USA 96:12685-12690, 1999) was evaluated for lipid efflux (FIG. 5).

[4] = system: Tangier disease fibroblast cell line with a truncated non-functional ABCA1 transporter; assay: Cholesterol efflux from Tangier disease fibroblasts; type: cell-based; details: 10 μg/ml, 18 hour
Procedure: as §4, §5

ABCA1 cells [5] = assay: Competitive binding of radiolabeled L-37pA to ABCA1 cells; design: species or system human; details: 8 μM, the maximum concentration tested; 4° C.
Procedure: FIGS. 7A-7B are a pair of graphs illustrating the competitive binding of L-37pA peptide to ABCA1 transfected cells and control cells. ABCA1 cells (FIG. 7A) and control cells (FIG. 7B) were incubated for 3 hours at 4° C. with the indicated concentration of the competitor proteins [L-37pA (triangle), D-37pA (open square), apoA-I (closed circle), L2D-37pA (star), and L3D-37pA (open circle)] and were then washed and incubated for 1 hour at 4° C. with 1 μg/ml of radiolabeled L-37pA peptide. Results are expressed as the mean of triplicates ±1 SD.
The L-37pA peptide was labeled with ^125I using iodine monochloride. Confluent cells grown on 12-well plates were incubated for 3 hours at 4° C. with the indicated concentration of the unlabeled competitor peptide in αMEM media plus 10 mg/ml of BSA (FIG. 7). […] Cells were washed three times, and cell bound counts were determined after solubilization with 0.1 N NaOH.
A two-step sequential competitive binding assay was performed in order to prevent any potentially interfering interaction of the radiolabeled peptide with the competitor proteins (Mendez et al., J. Clin. Invest. 94:1698-1705, 1994). The cells were first incubated with the competitor proteins for 3 hours, washed, and then the cell binding of the radiolabeled L-37 peptide was measured. […]

[6] = 10 μg/ml, 30 hour efflux period

C[C@H](CCC(=O)NCCC[N+](C)(C)CCCS(=O)(=O)[O-])[C@H]1CC[C@H]2[C@@H]3[C@H](O)C[C@@H]4C[C@H](O)CC[C@]4(C)[C@H]3C[C@H](O)[C@]12C [CHAPS, reference compound]
cholesterol efflux from ABCA1 cells to detergent [1]: Nearly identical results

CC(C)C[C@@H](NC(=O)[C@@H](Cc1c[nH]c2ccccc12)NC(=O)[C@H](N)CC(=O)O)C(=O)N[C@H](CCCCN)C(=O)N[C@H](C)C(=O)N[C@H](Cc1ccccc1)C(=O)N[C@H](Cc1ccc(O)cc1)C(=O)N[C@H](CC(=O)O)C(=O)N[C@H](CCCCN)C(=O)N[C@@H](C(=O)N[C@H](C)C(=O)N[C@H](CCC(=O)O)C(=O)N[C@H](CCCCN)C(=O)N[C@H](CC(C)C)C(=O)N[C@H](CCCCN)C(=O)N[C@H](CCC(=O)O)C(=O)N[C@H](C)C(=O)N[C@H](Cc1ccccc1)C(=O)N1CCC[C@@H]1C(=O)N[C@H](CC(=O)O)C(=O)N[C@H](Cc1c[nH]c2ccccc12)C(=O)N[C@H](CC(C)C)C(=O)N[C@H](CCCCN)C(=O)N[C@H](C)C(=O)N[C@H](Cc1ccccc1)C(=O)N[C@H](Cc1ccc(O)cc1)C(=O)N[C@H](CC(=O)O)C(=O)N[C@H](CCCCN)C(=O)N[C@@H](C(=O)N[C@H](C)C(=O)N[C@H](CCC(=O)O)C(=O)N[C@H](CCCCN)C(=O)N[C@H](CC(C)C)C(=O)N[C@H](CCCCN)C(=O)N[C@H](CCC(=O)O)C(=O)N[C@H](C)C(=O)N[C@H](Cc1ccccc1)C(=O)O)C(C)C)C(C)C [D-37pA] (H-[dD][dW][dL][dK][dA][dF][dY][dD][dK][dV][dA][dE][dK][dL][dK][dE][dA][dF][dP][dD][dW][dL][dK][dA][dF][dY][dD][dK][dV][dA][dE][dK][dL][dK][dE][dA][dF]-OH; N-terminus and C-terminus assumed)
release of LDH from ABCA1 cells, percentage of total cell LDH (ABCA1 cells [2]): 5.7%±0.1 | release of LDH from control cells, percentage of total cell LDH (control cells): 6.6%±0.1

C[C@H](CCC(=O)NCCS(=O)(=O)O)[C@H]1CC[C@H]2[C@@H]3CC[C@@H]4C[C@H](O)CC[C@]4(C)[C@H]3C[C@H](O)[C@]12C [taurodeoxycholate, reference compound]
cholesterol efflux from ABCA1 cells to detergent [1]: small amount of cholesterol efflux | cholesterol efflux from control cells to detergent ([3]; taurodeoxycholate 0.02%, 1 hour): Approximately the same amount

DWLKAFYDKVAEKLKEAFPDLYSKSTAAMSTYTGIFTDQVLSVLKGEE [18A-C-II]
increase in plasma triglycerides induced by free 5A peptide (60 mg/kg IV) (C57B1/6 mice): significantly reduced; also recorded: significantly halted | cholesterol efflux, BHK-ABCA1 versus BHK cells (BHK and BHK-ABCA1 cells): significant difference

DWLKAFYDKVAEKLKEAFPDWAKAAYDKAAEKAKEAA [5A]
red blood cells lysed (hemolysis) (red blood cells): no appreciable hemolysis

DWLKAFYDKVAEKLKEAFPDWLKAAYDKAAEKAKEAA [4A]
red blood cells lysed (hemolysis) (red blood cells): no appreciable hemolysis

DWLKAFYDKVAEKLKEAFPDWLKAAYDKVAEKAKEAA [3A]
red blood cells lysed (hemolysis) (red blood cells): moderate degree of hemolysis

DWLKAFYDKVAEKLKEAFPDWLKAFYDKVA EKLKEAF [37pA, reference compound]
lipid (cholesterol and phospholipid) efflux from ABCA1 cells ([1]; 18 hours): promoted ABCA1-mediated cholesterol efflux | lipid (cholesterol and phospholipid) efflux from control cells [3]: also able to mediate cholesterol efflux

DWLKAFYDKVAEKLKEAFPDWLKAFYDKVAEKAKEAA [2A]
red blood cells lysed (hemolysis) (red blood cells): moderate degree of hemolysis

DWLKAFYDKVAEKLKEAFPDWLKAFYDKVAEKAKEAF [1A]
red blood cells lysed (hemolysis) (red blood cells): moderate degree of hemolysis

DWLKAFYDKVAEKLKEAFPDWLKAFYDKVAEKLKEAF [L-37pA]
release of LDH from ABCA1 cells, percentage of total cell LDH (ABCA1 cells [2]): 4.3%±0.04 | release of LDH from control cells, percentage of total cell LDH (control cells): 6.1%±0.2

NP-40 [reference compound]
cholesterol efflux from ABCA1 cells to detergent [1]: Nearly identical results

RMRITERDDFRGQMSEITDDCPSLQDRFHLTEVHSLRVLEGS (Gamma crystalline peptide.) [contains two non-amphipathic alpha helices, reference compound]
lipid (cholesterol and phospholipid) efflux from ABCA1 cells ([1]; 18 hours): completely ineffective | lipid (cholesterol and phospholipid) efflux from control cells [3]: completely ineffective

apoA-I: apolipoprotein A-I, the predominant protein constituent of HDL
cholesterol efflux from ABCA1 cells after fixation with paraformaldehyde ([1]; 10 μg/ml, 18 hours, 3% paraformaldehyde): completely blocked | time at which cholesterol efflux from ABCA1 cells was first detectable [1, 6]: 2 h | lipid (cholesterol and phospholipid) efflux from ABCA1 cells ([1]; 18 hours): do so after transfection with ABCA1 | protein concentration at which lipid efflux began to show saturation ([1]; 18 hours): ~10 µg/mL | molar concentration at which lipid efflux began to show saturation ([1]; corresponds to 10 μg/ml): 0.36 µM | cholesterol efflux from normal fibroblasts (Normal skin fibroblasts): effluxed cholesterol | cholesterol efflux from control cells over the time course [3, 6]: no significant increase above background | lipid (cholesterol and phospholipid) efflux from control cells [3]: do not efflux significant amounts; also recorded: unable | cholesterol efflux from Tangier disease fibroblasts [4]: did not efflux significant amounts | binding of labeled L-37pA to ABCA1 cells blocked by competitor (ABCA1 cells [5]): approximately 30%
